pIC50: −log10 of the molar value. Where two headings read alike, the source gives them in different places.
System: RBL-2H3 cells
Experiment: IgE-mediated RBL-2H3 cell degranulation model (β-hexosaminidase release), in vitro anti-allergic activity test
Type: cell-based
Conditions: for Degranulation efficiency (%): RBL-2H3 cells, anti-DNP-IgE sensitized, DNP-BSA stimulated
From the text: Currently available mast cell lines are not suitable for in vitro subculturing, and thus it is difficult to obtain a large number of homogeneous cells for experimental research. The RBL-2H3 cell line is similar to mast cells in cell structure and degranulation mechanism, and more importantly, it is possible to realize a stable subculturing of the line. Thus, the RBL-2H3 cell line is usually used as an alternative model of mast cells in the studies on mast cell functions and further researches of allergic diseases.
In the present embodiment, an IgE-mediated RBL-2H3 cell model was employed to measure the degranulation efficiency of sensitized cells, followed by a calculation to obtain the inhibitory of the compound against the cell degranulation and to further obtain the anti-allergic activity of the compound.
This embodiment was conducted with the following four groups:
(1) negative control group (non-activated group);
(2) blank control group (DNP-BSA-activated group);
(3) positive control group (loratadine group); and
(4) compound group (the compound obtained in step (5) in Embodiment 1).
This embodiment was conducted as follows:
(1) Sensitizing the cells: The RBL-2H3 cells were collected with trypsinization, and added into 96-well plates, 100 μL in each well, followed by the addition of anti-DNP-IgE to a final concentration of 1 μg/mL to sensitize the cells, and incubated in an incubator overnight (37° C., 5% CO2).
(2) Pre-protection of the cells: In the negative control group, 5, μL of PBS and 95 μL of Tyrode's buffer solution were added to each sample. In the blank control group, 5 μL of DNP-BSA and 95 μL of Tyrode's buffer solution were added to each sample. In the positive control group, 5 μL of loratadine (of various concentrations) and 95 μL of Tyrode's buffer solution were added to each sample. In the compound group, 5 μL of the compound solution (in PBS, with a final concentration of 1.25, 0. 625, 0.3125, 0.15625, 0.078125, or 0.0390625 μg/mL) and 95 μL of Tyrode's buffer solution were added to each sample. After the addition of above reagents, 95 μL of the cells were then added to culture plates, and incubated for 1 hour.
(3) Stimulating the cells: In the negative control group, 5 μL of PBS was added to each sample. In the other three groups, 5 μL of DNP-BSA was added to a final concentration of 1 μg/mL to stimulate the RBL-2H3 cells, and incubated for 1 hour.
(4) Disintegration of the cells: The culture supernatants were collected, and then the Tyrode's buffer solution (containing 0.1% of Triton X-100) was added to the culture plates to disintegrate the cells so as to obtain lysate solutions.
(5) β-hexosaminidase activity measurement: The supernatants and the lysate solutions were added to 96-well plates for fluorescent assays, 25 μL in each well, followed by the addition of 100 μL of 1.2 mM 4-methylumbelliferyl-N-acetyl-β-d-glucosaminide to allow reaction at 37° C. for 30 minutes. Then the fluorescence (excitation wavelength: 360 nm, emission wavelength: 450 nm) of the solution in each well was measured using a microplate reader.
(6) Calculation of degranulation efficiency:
Degranulation efficiency was calculated through the following expression:
wherein, FS represent the fluorescence of supernatant, and FL represents the fluorescence of lysate solution.
(7) Calculation of inhibitory rate on allergy
Inhibitory rate was calculated with the following expression:
wherein DEB represents the degranulation efficiency of blank control group, DEC represents the degranulation efficiency of compound group and DEN represents the degranulation efficiency of negative control group.

[1] = Rattus norvegicus, RBL-2H3, read-out: Inhibitory rate (%)

Row | Compound | inhibitory effect on mast cell degranulation (IgE-mediated RBL-2H3 cell model, result in words) | Degranulation efficiency (%) (compound 0.0390625 μg/mL) | Degranulation efficiency (%) (compound 0.078125 μg/mL) | Degranulation efficiency (%) (compound 0.15625 μg/mL) | Degranulation efficiency (%) (compound 0.3125 μg/mL) | Degranulation efficiency (%) (compound 0.625 μg/mL) | Degranulation efficiency (%) (compound 1.25 μg/mL) | pIC50 (Rattus norvegicus, RBL-2H3) | inhibition at 0.0390625 µg/mL [1] [%] | inhibition at 0.078125 µg/mL [1] [%] | inhibition at 0.15625 µg/mL [1] [%] | inhibition at 0.3125 µg/mL [1] [%] | inhibition at 0.625 µg/mL [1] [%] | inhibition at 1.25 µg/mL [1] [%] | pIC50 (Rattus norvegicus, concentration of the compound when the inhibitory rate is 50%, RBL-2H3 degranulation, read-out: IC50)
1 | COc1cc(O)cc2c1C(=O)c1c(cc3c(c1O)C1C=COC1O3)C2=O (stereo not drawn) [Compound] | strong inhibitory effect | 52.86 | 48.53 | 38.46 | 35.61 | 24.46 | 14.29 | 5.73 | -15.2 | -3.38 | 24.2 | 32.1 | 62.7 | 90.6 | 
2 | CCOC(=O)N1CCC(=C2c3ccc(Cl)cc3CCc3cccnc32)CC1 [loratadine, reference compound] |  |  |  |  |  |  |  |  |  |  |  |  |  |  | 4.04
